Results taken from article PMC8312697, “Mechanistic Investigations Support Liver Safety of Ubrogepant” (Toxicological Sciences, 2020).
pIC50: −log10 of the molar value.

How the values were obtained:
[1] = target: T1, bile salt export pump (BSEP) (Homo sapiens, UniProt O95342); assay: HEPATOPAC taurocholic acid transport / bile acid excretion; format: cell-based
T1 construct: host or cells: human hepatocytes in HEPATOPAC micropatterned co-culture
Description: The human HEPATOPAC model was also used to measure the effects of test agents on transport of taurocholic acid as an indicator of altered bile salt export pump (BSEP) function ([Li et al., 2017]). Safe dose perspective is gained from comparing in vitro concentration response results to calculated liver inlet Cmax (maximum plasma concentration).

HepG2 cell = HepG2 cell glucose/galactose shift model; format: cell-based, human
CGRP receptor = target: T2, CGRP receptor (Homo sapiens, UniProt O60894+Q16602); assay: CGRP-stimulated cAMP response in HEK293 cells; format: cell-based; conditions: read-out: Potency IC50
T2 construct: expressed in transfected cells; host or cells: HEK293
T2 sequence (Q16602 23-461): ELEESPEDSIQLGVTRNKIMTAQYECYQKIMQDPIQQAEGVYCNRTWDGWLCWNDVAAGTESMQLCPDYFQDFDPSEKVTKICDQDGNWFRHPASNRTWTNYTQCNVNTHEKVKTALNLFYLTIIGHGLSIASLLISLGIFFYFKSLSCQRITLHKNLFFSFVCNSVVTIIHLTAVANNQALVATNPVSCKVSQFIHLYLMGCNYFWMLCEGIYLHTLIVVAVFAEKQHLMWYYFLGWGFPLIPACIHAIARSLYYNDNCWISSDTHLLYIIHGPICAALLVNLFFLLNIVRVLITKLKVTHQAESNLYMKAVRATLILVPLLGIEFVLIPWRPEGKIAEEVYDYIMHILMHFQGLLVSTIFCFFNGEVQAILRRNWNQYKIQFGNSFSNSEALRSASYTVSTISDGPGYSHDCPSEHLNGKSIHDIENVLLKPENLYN
T2 sequence (O60894 27-148): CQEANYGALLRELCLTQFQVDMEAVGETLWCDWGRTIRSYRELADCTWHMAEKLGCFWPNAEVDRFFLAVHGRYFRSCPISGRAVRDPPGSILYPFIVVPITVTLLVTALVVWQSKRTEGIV

[2] = system: Nrf2 oxidative stress and Nrf1 proteasomal stress pathways; assay: In vitro rat HEPATOPAC gene expression BA-LRA; format: cell-based; conditions: 50 μM
[3] = system: HEPATOPAC hepatocyte coculture; assay: HEPATOPAC urea synthesis (mitochondrial function); format: cell-based, rat; conditions: 50 µM
Procedure: Effects of test agents on mitochondrial function were assessed from media collected in the same HEPATOPAC studies by monitoring urea synthesis rates ([Khetani et al., 2013]).

NTCP = target: T3, NTCP (Homo sapiens, UniProt Q14973); assay: NTCP uptake transporter inhibition assay; format: cell-based; conditions: for inhibition of NTCP-mediated probe substrate transport: uptake transporter inhibition assay
T3 construct: expressed in transfected cells; host or cells: CHO (telcagepant); HEK293 (ubrogepant, MK-3207)
T3 sequence (Q14973 1-349): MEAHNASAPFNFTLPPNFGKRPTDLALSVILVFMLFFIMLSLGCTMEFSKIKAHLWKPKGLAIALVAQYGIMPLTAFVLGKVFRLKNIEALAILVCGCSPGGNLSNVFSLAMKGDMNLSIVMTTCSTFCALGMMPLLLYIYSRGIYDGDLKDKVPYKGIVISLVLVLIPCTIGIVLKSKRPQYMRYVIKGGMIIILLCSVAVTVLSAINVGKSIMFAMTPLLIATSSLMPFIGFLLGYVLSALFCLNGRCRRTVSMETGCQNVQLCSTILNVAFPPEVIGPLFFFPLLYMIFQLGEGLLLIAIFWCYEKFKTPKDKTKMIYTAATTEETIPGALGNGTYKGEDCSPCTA
Procedure: To assess the functional impact of ubrogepant on the human ABC efflux transporters BSEP, MRP3, and MRP4, in vitro vesicular transport inhibition assays were conducted by Solvo Biotechnology (Szeged, Hungary). The ability of ubrogepant to inhibit the BSEP-mediated transport (and accumulation) of a probe substrate was tested at concentrations ranging from 0.04 – 30 μM, where the latter defined the upper limit of compound solubility in the BSEP assay buffer. For the MRP3 and MRP4 vesicle-based transporter assessments, ubrogepant concentrations of 0.1 to 70 μM were used. To assess the functional impact of ubrogepant on the human SLC (uptake) transporter NTCP, in vitro experiments were performed using HEK293 cells stably expressing NTCP. The ability of ubrogepant to inhibit NTCP-mediated uptake (and accumulation) of taurocholate was tested at concentrations ranging from 0.04 – 30 μM.
To assess the functional impact of MK-3207 on the human ABC efflux transporters BSEP, MRP3 and MRP4, in vitro vesicular transport inhibition assays were conducted by Solvo Biotechnology (Szeged, Hungary) and overseen by DSSI. BSEP transport was assessed in the presence of 0.5-30 µM MK-3207; MRP3 and MRP4 transport was assessed in the presence of 0.11-80 µM MK-3207. The upper limits of these ranges were determined by compound solubility in each assay buffer. NTCP transporter inhibition was assessed in NTCP-expressing HEK293 cells in the presence of 0.03 – 25 µM MK-3207.

[4] = system: mitochondrial electron transport chain (ETC); assay: MITOsym/DILIsym fit of OCR data (ETC inhibition parameters); set-up: species or system human; conditions: for DILIsym ETC inhibition constant: MITOsym value × scaling factor of 34.7
Procedure: MITOsym® parameters were then translated to DILIsym® parameters using a scaling factor calculated using classic exemplar compounds that perturb different pathways of mitochondrial respiration (e.g., rotenone for ETC inhibition, FCCP for uncoupling).
The parameter values for ubrogepant were determined by reproducing the cell count-corrected OCR data in MITOsym®, a mechanistic model of mitochondrial function in the in vitro setting. MITOsym parameters were then translated to DILIsym parameters using a scaling factor calculated using classic exemplar compounds that perturb different pathways of mitochondrial respiration (e.g., rotenone for ETC inhibition, FCCP for uncoupling).
Mitochondrial toxicity parameter values for MK-3207 were determined by reproducing the cell count-corrected OCR response to MK-3207 dosing in both MITOsym and DILIsym. The ETC inhibition coefficient from the MITOsym parameters was then translated to a DILIsym parameter using a scaling factor calculated using classic exemplar compounds that perturb different pathways of mitochondrial respiration (e.g., rotenone for ETC inhibition, FCCP for uncoupling), similar to ubrogepant. The maximum inhibition potency from the DILIsym fit was combined with this value in the final parameter set.

dog = assay: Conventional nonclinical toxicology study, dog; conditions: 1M dog

T1 sequence (O95342 whole entry): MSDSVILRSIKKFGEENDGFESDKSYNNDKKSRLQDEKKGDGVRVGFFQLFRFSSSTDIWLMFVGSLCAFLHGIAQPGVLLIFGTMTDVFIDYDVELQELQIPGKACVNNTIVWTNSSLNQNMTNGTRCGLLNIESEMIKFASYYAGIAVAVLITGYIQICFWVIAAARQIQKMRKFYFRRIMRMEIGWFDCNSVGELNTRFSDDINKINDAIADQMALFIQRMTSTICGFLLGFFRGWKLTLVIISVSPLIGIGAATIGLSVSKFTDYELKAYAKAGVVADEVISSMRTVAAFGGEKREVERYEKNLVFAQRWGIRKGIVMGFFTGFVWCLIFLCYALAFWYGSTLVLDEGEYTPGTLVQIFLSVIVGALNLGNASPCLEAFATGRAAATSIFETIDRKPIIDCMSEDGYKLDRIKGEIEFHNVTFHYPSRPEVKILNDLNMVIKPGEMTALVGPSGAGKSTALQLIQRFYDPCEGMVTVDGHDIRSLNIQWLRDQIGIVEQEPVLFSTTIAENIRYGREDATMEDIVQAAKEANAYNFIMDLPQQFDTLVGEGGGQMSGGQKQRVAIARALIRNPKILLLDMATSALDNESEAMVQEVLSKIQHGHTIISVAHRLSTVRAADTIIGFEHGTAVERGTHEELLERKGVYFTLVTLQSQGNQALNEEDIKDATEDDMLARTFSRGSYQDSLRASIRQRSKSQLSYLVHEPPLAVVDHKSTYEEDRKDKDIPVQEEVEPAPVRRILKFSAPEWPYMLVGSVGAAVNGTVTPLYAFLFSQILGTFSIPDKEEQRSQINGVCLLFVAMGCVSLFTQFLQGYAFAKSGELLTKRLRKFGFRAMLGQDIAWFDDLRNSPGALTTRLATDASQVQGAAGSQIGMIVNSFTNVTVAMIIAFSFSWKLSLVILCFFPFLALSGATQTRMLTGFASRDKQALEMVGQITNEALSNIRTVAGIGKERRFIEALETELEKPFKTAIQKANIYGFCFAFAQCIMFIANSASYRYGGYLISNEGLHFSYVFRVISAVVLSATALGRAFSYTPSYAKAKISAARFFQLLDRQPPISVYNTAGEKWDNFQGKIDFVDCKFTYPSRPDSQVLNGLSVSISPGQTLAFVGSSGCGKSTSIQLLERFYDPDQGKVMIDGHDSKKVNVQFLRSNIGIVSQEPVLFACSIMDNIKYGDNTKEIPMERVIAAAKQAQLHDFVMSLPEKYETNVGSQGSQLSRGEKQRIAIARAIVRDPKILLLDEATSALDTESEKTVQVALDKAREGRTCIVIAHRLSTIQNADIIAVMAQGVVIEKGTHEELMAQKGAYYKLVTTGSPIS

Structure (SMILES)	effect on bile acid excretion ([1]; 4.4× estimated unbound liver Cmax (highest testable concentration, solubility))	mitochondrial toxicity potential (HepG2 cell)	pIC50 (CGRP receptor)	BA-LRA score [2]	effect on urea (mitochondrial function) [3]	inhibition of NTCP-mediated probe substrate transport (NTCP)	maximal inhibition value (ETC) ([4]; DILIsym fit of HepG2 OCR data)	ETC inhibition coefficient ([4]; MITOsym constant translated into DILIsym, 1-hour and 24-hour HepG2 OCR data)	Pivotal conventional nonclinical toxicology study liver findings (dog)	exposure margin (dog)	effect on bile acid excretion ([1]; 10.7× estimated unbound liver Cmax)	NTCP inhibition (NTCP; CHO cells expressing NTCP, up to 25 μM)	pIC50 (NTCP; taurocholate uptake, read-out: NTCP estimated IC50)	DILIsym ETC inhibition constant [4]	MITOsym ETC inhibition constant ([4]; fit of 1 hour HepG2 OCR data)	MITOsym ETC inhibition constant ([4]; fit of 24-hour HepG2 OCR data)
O=C(CN1C(=O)C2(CCCC2)NC[C@H]1c1cc(F)cc(F)c1)Nc1ccc2c(c1)C[C@@]1(C2)C(=O)Nc2ncccc21 [MK-3207]	no significant impact was observed on biliary excretion	did not raise mitochondrial safety concerns	9.92	> 0.2	No effect on urea	No inhibition was observed	0.35	0.347 µM	slight periportal vacuolation with < 4× ALT/AST associated with excessive body weight loss	17 ×	–	–	–	–	–	–
O=C(N[C@@H]1CC[C@@H](c2cccc(F)c2F)CN(CC(F)(F)F)C1=O)N1CCC(n2c(=O)[nH]c3ncccc32)CC1 [Telcagepant]	–	did not raise mitochondrial safety concerns	–	> 0.2	No effect on urea	inhibited	–	–	–	–	No effect on bile acid excretion	> 50%	4.71	1.74e-05 mol/mL	0.5 mM	–
C[C@@H]1[C@H](c2ccccc2)C[C@H](NC(=O)c2cnc3c(c2)C[C@@]2(C3)C(=O)Nc3ncccc32)C(=O)N1CC(F)(F)F [Ubrogepant]	–	–	10.10	–	–	–	–	–	–	–	–	–	–	4.72e-07 mol/mL	–	0.0136 mM
